# Biological target: T1, IRAK4 (Homo sapiens, UniProt Q9NWZ3)
# T1 sequence (Q9NWZ3 1-460): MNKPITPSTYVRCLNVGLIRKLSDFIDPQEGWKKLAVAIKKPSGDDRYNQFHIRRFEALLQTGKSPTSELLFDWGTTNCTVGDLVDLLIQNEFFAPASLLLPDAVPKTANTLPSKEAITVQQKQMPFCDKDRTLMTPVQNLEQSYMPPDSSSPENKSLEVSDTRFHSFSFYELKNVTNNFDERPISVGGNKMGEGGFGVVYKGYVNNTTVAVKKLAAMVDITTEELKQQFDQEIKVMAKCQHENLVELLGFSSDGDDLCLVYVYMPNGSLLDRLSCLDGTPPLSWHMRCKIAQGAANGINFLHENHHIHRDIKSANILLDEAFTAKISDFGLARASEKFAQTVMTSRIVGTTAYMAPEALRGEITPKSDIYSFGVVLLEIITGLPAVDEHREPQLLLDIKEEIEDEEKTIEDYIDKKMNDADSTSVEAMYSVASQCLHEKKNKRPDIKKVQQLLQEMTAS
# Assay: NanoBRET target engagement assay in HEK-293 cells, IRAK4
# Type: cell-based
# Settings: Table 14; live HEK-293 cells, 1 h
# Source text: The NanoBRET assay measures kinase engagement in real time in the context of the intact cell. Unlike the previously described biochemical kinase assay methodology, the NanoBRET assay measures the binding and activity characteristics under equilibrium conditions using full-length kinases in the presence of cellular concentrations of ATP in live, uncompromised cells. As such, the assay provides a more relevant assessment of kinase potency and selectivity that would be expected to be observed in the native cellular environment, where potency is often considerably lower than that observed in the isolated biochemical assays (Vasta, J. D. et al., (2018) Cell Chem. Biol. 25, 206-214). The assay uses a Kinase-NanoLuc® fusion vector expressing a kinase protein to which a luciferase tag has been added, a cell-permeant fluorescent NanoBRET™ tracer, a NanoLuc® substrate, and an extracellular NanoLuc® inhibitor. Upon expression of the luciferase-tagged kinase, cells will produce a strong BRET signal only in the presence of the NanoBRET™ tracer. The extracellular NanoLuc® inhibitor ensures that the BRET signal observed emanates only from live cells. Because the BRET signal has tight distance constraints, addition of the test compound will decrease the BRET signal if the compound competes with the NanoBRET™ tracer for binding to the kinase domain. Under the appropriate tracer conditions established by the manufacturer, quantitative intracellular affinity and relative potency can then be determined using Mass Action model equations.
# HEK-293 cells were purchased from ATCC. FuGENEHD Transfection Reagent, Kinase-NanoLucfusion plasmids, Transfection Carrier DNA, NanoBRETTracers and dilution buffer, NanoBRETNano-Glo Substrate, Extracellular NanoLucInhibitor were obtained from Promega.
# Assays were conducted following Promega assay protocol with some modifications. HEK-293 Cells were transiently transfected with Kinase-NanoLucFusion Vector DNA by FuGENEHD Transfection Reagent. Testing compounds were delivered into 384 well assay plate by Echo 550 (LabcyteInc, Sunnyvale, CA). Transfected cells were harvested and mixed with NanoBRETTracer Reagent and dispensed into 384 well plates and incubated at 37 °C in 5% CO2 cell culture incubator for 1 hour. The NanoBRETNano-Glo Substrate plus Extracellular NanoLucInhibitor Solution were added into the wells of the assay plate and incubated for 2-3 minutes at room temperature. The donor emission wavelength (460 nm) and acceptor emission wavelength (600 nm) were measured in the En Visionplate reader. The BRET Ratios were calculated.
# BRET Ratio=[(Acceptor sample÷Donor sample)−(Acceptor no-tracer control÷Donor no-tracer control)].
# The IC50 values of compounds were calculated with Prism GraphPad program.
# • 1). Cultivate HEK-293 cells (70-80% confluence) appropriately prior to assay. Trypsinize and collect HEK-293 cells. • 2). Prepare lipid:DNA complexes as follows: • a. Prepare a 10 μg/ml solution of DNA in Opti-MEM without serum that consists of the following ratios of carrier DNA and DNA encoding NanoLuc® fusion. 9.0 μg/mL of Transfection Carrier DNA, 1.0 μg/mL of NanoLuc fusion vector DNA and 1 mL of Opti-MEM without phenol red. Mix thoroughly. • b. Add 30 μl of FuGENE HD Transfection Reagent into each milliliter of DNA mixture to form lipid:DNA complex. • c. Mix by inversion 10 times. • d. Incubate at ambient temperature for 20 minutes to allow complexes to form. • 3). In a sterile, conical tube, mix 1 part of lipid:DNA complex with 20 parts of HEK-293 cells in suspension. Mix gently by inversion 5 times. • 4). Dispense cells+lipid:DNA complex into a sterile tissue culture dish and incubate for 22-24 hours.
# Each test compound is delivered from the compound source plate to the wells of 384-well white NBS plate by Echo 550.
# 3. Preparation of Cells with NanoBRET™ Tracer Reagent • 1). Remove medium from dish with transfected HEK-293 cells via aspiration, trypsinize and allow cells to dissociate from the dish. • 2). […]
row,IC50 [pM],Compound
1,< 500,"COc1cn2ncc(-c3ccc(F)c(N[C@H]4CNCC[C@@H]4F)n3)c2nc1C1CC1 [Compound 6, 6-(5-cyclopropyl-6-methoxypyrazolo[1,5-a]pyrimidin-3-yl)-3-fluoro-N-((3S,4S)-4-fluoropiperidin-3-yl)pyridin-2-amine]"
2,< 500,"COc1cn2ncc(-c3nc(N[C@H]4CNCC[C@@H]4F)ccc3F)c2nc1C1CC1 [Compound 3, 6-(5-cyclopropyl-6-methoxypyrazolo[1,5-a]pyrimidin-3-yl)-5-fluoro-N-((3S,4S)-4-fluoropiperidin-3-yl)pyridin-2-amine]"
3,< 500,"COc1cn2ncc(-c3cccc(N[C@H]4CNCC[C@@H]4F)n3)c2nc1C1CC1 [Compound 21, 6-(5-cyclopropyl-6-methoxypyrazolo[1,5-a]pyrimidin-3-yl)-N-((3S,4S)-4-fluoropiperidin-3-yl)pyridin-2-amine]"

# Continued, molecule first:
row,Compound,IC50 [pM]
1,"COc1cn2ncc(-c3nc(N[C@@H]4CCCNC4)c(F)cc3F)c2nc1C(C)(C)O [Compound 11, (R)-2-(3-(3,5-difluoro-6-(piperidin-3-ylamino)pyridin-2-yl)-6-methoxypyrazolo[1,5-a]pyrimidin-5-yl)propan-2-ol]",< 500
2,"COc1cn2ncc(-c3nc(N[C@H]4CNCC[C@@H]4F)c(F)cc3F)c2nc1C1CC1 [Compound 22, 6-(5-cyclopropyl-6-methoxypyrazolo[1,5-a]pyrimidin-3-yl)-3,5-difluoro-N-((3S,4S)-4-fluoropiperidin-3-yl)pyridin-2-amine]",< 500
3,"COc1cn2ncc(-c3ccc(F)c(N[C@@H]4CCCNC4)n3)c2nc1C1CC1 [Compound 5, (R)-6-(5-cyclopropyl-6-methoxypyrazolo[1,5-a]pyrimidin-3-yl)-3-fluoro-N-(piperidin-3-yl)pyridin-2-amine]",3000
4,"COc1cn2ncc(-c3nc(N[C@H]4CNC[C@@H]4F)c(F)cc3F)c2nc1C(C)(C)O [Compound 12, 2-(3-(3,5-difluoro-6-(((3S,4S)-4-fluoropyrrolidin-3-yl)amino)pyridin-2-yl)-6-methoxypyrazolo[1,5-a]pyrimidin-5-yl)propan-2-ol]",< 500
5,"COc1cn2ncc(-c3nc(N[C@H]4CNCC[C@@H]4F)c(F)cc3F)c2nc1C(C)(C)O [Compound 13, 2-(3-(3,5-difluoro-6-(((3S,4S)-4-fluoropiperidin-3-yl)amino)pyridin-2-yl)-6-methoxypyrazolo[1,5-a]pyrimidin-5-yl)propan-2-ol]",< 500

# Same assay, conditions: Table 20; live HEK-293 cells, 1 h
row,IC50 [pM],Compound
1,< 500,"COc1cn2ncc(-c3cncc(N[C@H]4CNCC[C@@H]4F)n3)c2nc1C1CC1 [Compound 12a, 6-(5-cyclopropyl-6-methoxypyrazolo[1,5-a]pyrimidin-3-yl)-N-((3S,4S)-4-fluoropiperidin-3-yl)pyrazin-2-amine]"
2,< 500,"COc1cn2ncc(-c3cncc(N[C@@H]4CCCNC4)n3)c2nc1C1CC1 [Compound 11a, (R)-6-(5-cyclopropyl-6-methoxypyrazolo[1,5-a]pyrimidin-3-yl)-N-(piperidin-3-yl)pyrazin-2-amine]"
3,800,"COc1cn2ncc(-c3ccnc(N[C@H]4CNCC[C@@H]4F)n3)c2nc1C1CC1 [Compound 7a, 4-(5-cyclopropyl-6-methoxypyrazolo[1,5-a]pyrimidin-3-yl)-N-((3S,4S)-4-fluoropiperidin-3-yl)pyrimidin-2-amine]"

# Further lines, the molecule ahead of its results:
row,Compound,IC50 [pM]
1,"COc1cn2ncc(-c3nc(N[C@H]4CNC[C@@H]4F)ncc3F)c2nc1C1CC1 [Compound 13a, 4-(5-cyclopropyl-6-methoxypyrazolo[1,5-a]pyrimidin-3-yl)-5-fluoro-N-((3S,4S)-4-fluoropyrrolidin-3-yl)pyrimidin-2-amine]",< 500
2,"COc1cn2ncc(-c3nc(N[C@@H]4CCCNC4)ncc3F)c2nc1C1CC1 [Compound 14a, (R)-4-(5-cyclopropyl-6-methoxypyrazolo[1,5-a]pyrimidin-3-yl)-5-fluoro-N-(piperidin-3-yl)pyrimidin-2-amine]",< 500
3,"COc1cn2ncc(-c3nc(N[C@H]4CNCC[C@@H]4F)ncc3F)c2nc1C(C)(C)O [Compound 6a, 2-(3-(5-fluoro-2-(((3S,4S)-4-fluoropiperidin-3-yl)amino)pyrimidin-4-yl)-6-methoxypyrazolo[1,5-a]pyrimidin-5-yl)propan-2-ol]",< 500
4,"COc1cn2ncc(-c3nc(N[C@@H]4CCCNC4)ncc3F)c2nc1C(C)(C)O [Compound 4a, (R)-2-(3-(5-fluoro-2-(piperidin-3-ylamino)pyrimidin-4-yl)-6-methoxypyrazolo[1,5-a]pyrimidin-5-yl)propan-2-ol]",3000
5,"COc1cn2ncc(-c3nc(N[C@H]4CNC[C@@H]4F)ncc3F)c2nc1C(C)(C)O [Compound 5a, 2-(3-(5-fluoro-2-(((3S,4S)-4-fluoropyrrolidin-3-yl)amino)pyrimidin-4-yl)-6-methoxypyrazolo[1,5-a]pyrimidin-5-yl)propan-2-ol]",2000
6,"COc1cn2ncc(-c3ccnc(N[C@H]4CNC[C@@H]4F)n3)c2nc1C1CC1 [Compound 8a, 4-(5-cyclopropyl-6-methoxypyrazolo[1,5-a]pyrimidin-3-yl)-N-((3S,4S)-4-fluoropyrrolidin-3-yl)pyrimidin-2-amine]",600
7,"COc1cn2ncc(-c3ccnc(N[C@H]4CNCC[C@@H]4F)n3)c2nc1C(C)(C)O [Compound 3a, 2-(3-(2-(((3S,4S)-4-fluoropiperidin-3-yl)amino)pyrimidin-4-yl)-6-methoxypyrazolo[1,5-a]pyrimidin-5-yl)propan-2-ol]",8000
8,"COc1cn2ncc(-c3nc(N[C@H]4CNCC[C@@H]4F)ncc3F)c2nc1C1CC1 [Compound 15a, 4-(5-cyclopropyl-6-methoxypyrazolo[1,5-a]pyrimidin-3-yl)-5-fluoro-N-((3S,4S)-4-fluoropiperidin-3-yl)pyrimidin-2-amine]",< 500
